Source: US10202371B2, “Oxazolidin-2-one-pyrimidine derivatives and the use thereof as phosphatidylinositol-3-kinase inhibitors” (Novartis AG, priority 2012, dated 2019)
Read-outs that look alike come from different tables or passages of the source.

What was measured:
Detroit562 cells = experiment: BrdU cell proliferation assay Detroit562; type: cell-based; settings: Homo sapiens, Detroit 562, BrdU incorporation
From the text: (§1) The SCL-1 and SCC12B2 are human cutaneous squamous cell carcinoma (SCC) cell lines derived from naturally occurring, poorly differentiated SCCs. The SCL-1 cell line was originally established in the lab of N. Fusenig at the Cancer Research Center in Heidelberg, and its growth characteristics in vitro in comparison to normal keratinocytes were described previously (Neely et al 1991). The SCC12B2 cell line was established as described previously (Rheinwald & Beckett 1981) from the facial skin of a transplant patient who received immunosuppressive therapy for 7 years. The human SCC cell line Detroit562 was obtained from American Tissue Culture Collection (ATCC). Detroit562 is referred to as Head & Neck squamous cell carcinomas (HNSCC) and was derived from a pharyngeal SCC tumor. […]
(§2) Cells of SCC or keratinocyte lines (Detroit562, SCC12B2, SCL1, HaCaT) were used for the proliferation assays when they had reached about 80% to 90% confluency. Cells were then harvested after trypsin-mediated dislodgement from culture flasks, washed in culture medium containing 10% FCS, counted in a hemocytometer and diluted complete culture medium with 5% FCS to obtain a cell density of 5×10^4 cells/ml. […] The cell proliferation was determined on the basis of incorporation of bromodesoxy-uridin (BrdU) into cellular DNA using the chemiluminescent BrdU Cell Proliferation ELISA (Roche article #11 669 915 001). […]

[1] = In vitro skin penetration and permeation, pig skin in Franz-type diffusion cells; type: in vitro ADME; settings: for Permeation rate: pig skin, 48 hours exposure
Procedure: The compound was applied as 0.5% solutions in propylene glycol mixed with either ethanol or oleylalcohol to pig skin mounted in static Franz-type diffusion cells. At the end of a 48 hours exposure time, drug concentrations were measured in the skin (after removal of stratum corneum) and in the receiver. The receiver solution is a mixture of two volume parts of phosphate-buffered saline (PBS) and one volume part of fetal calf serum (FCS).

SCC12B2 cells = experiment: BrdU cell proliferation assay SCC12B2; type: cell-based; settings: Homo sapiens, BrdU incorporation
From the text: as §1, §2

Which IC50 (Detroit562 cells; measurement #1, read-out: anti-proliferative IC50 Detroit562 measurement #1) does the source give for `C[C@H]1[C@H](c2nccs2)OC(=O)N1c1cc(-c2cnc(N)nc2C(F)(F)F)nc(N2CCOCC2)n1` [Example 1, (4S,5R)-3-(2′-Amino-2-morpholin-4-yl-4′-trifluoromethyl-[4,5′]bipyrimidinyl-6-yl)-4-methyl-5-thiazol-2-yl-oxazolidin-2-one] here?
The IC50 was 598 nM.

And the IC50 (Detroit562 cells; measurement #2, read-out: anti-proliferative IC50 Detroit562 measurement #2)?
The IC50 was 440 nM.

And the “permeation rate through pig skin (in words)” value ([1]; pig skin in vitro)?
The value was “low”.

And the Permeation rate ([1]; 0.5% in PG + ethanol (7 + 3))?
The Permeation rate was 1.0 ± 0.3 ng/cm^2/hr.

And the Permeation rate ([1]; 0.5% in PG/OA (9 + 1))?
The Permeation rate was 301.1 ± 129.5 ng/cm^2/hr.

What about the IC50 (SCC12B2 cells; measurement #1, read-out: anti-proliferative IC50 SCC12B2 measurement #1) of the same compound?
Its IC50 is 1290 nM.

What about the IC50 (SCC12B2 cells; measurement #2, read-out: anti-proliferative IC50 SCC12B2 measurement #2) of the same compound?
The IC50 was 703 nM.
